pIC50: −log10 of the molar value.
Key:
[1] = target: T1, recombinant form of Glutaminase 1 (GAC) (Homo sapiens, UniProt O94925); assay: Recombinant Enzyme Assay - Time Dependence (60 min preincubation); assay type: biochemical; conditions: read-out: GAC Delta N2 IC50 60 min preinc
T1 sequence (O94925 137-598 isoform O94925-3 limits assumed): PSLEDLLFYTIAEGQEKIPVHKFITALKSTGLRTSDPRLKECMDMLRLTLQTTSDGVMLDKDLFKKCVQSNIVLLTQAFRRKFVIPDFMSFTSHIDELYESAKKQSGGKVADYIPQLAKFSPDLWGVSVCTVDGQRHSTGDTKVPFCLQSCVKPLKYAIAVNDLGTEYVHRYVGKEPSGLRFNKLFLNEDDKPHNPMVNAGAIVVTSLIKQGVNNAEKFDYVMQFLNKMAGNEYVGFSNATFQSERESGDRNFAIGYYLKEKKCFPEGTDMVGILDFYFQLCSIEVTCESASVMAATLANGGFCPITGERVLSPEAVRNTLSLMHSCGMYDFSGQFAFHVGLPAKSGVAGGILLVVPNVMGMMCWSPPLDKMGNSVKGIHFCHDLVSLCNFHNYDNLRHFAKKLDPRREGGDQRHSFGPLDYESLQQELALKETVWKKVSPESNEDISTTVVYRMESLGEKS
Description: The enzyme/compound mix was sealed with sealing foil (USA Scientific) and allowed to incubate, with mild agitation, for 60 minutes at 20° C. Enzymatic reaction was started with the addition of 50 μL of substrate solution (50 mM Tris-HCl pH 8.0, 0.2 mM EDTA, 150 mM K2HPO4, 0.1 mg/ml BSA, 1 mM DTT, 20 mM L-glutamine, 2 mM NAD^+, and 10 ppm antifoam) and read in a Molecular Devices M5 plate reader at 20° C. The plate reader was configured to read absorbance (=340 nm) in kinetic mode for 15 minutes. Data was recorded as milli-absorbance units per minute and slopes were compared to a control compound and a DMSO-only control on the same plate. Compounds with slopes less than the DMSO control were considered inhibitors and plate variability was assessed using the control compound.

[2] = test system: P493-6 (myc "on") cells; assay: Cell Proliferation Assay; assay type: cell-based; conditions: P493-6, 72 h, read-out: Cell prolif P493 72 h IC50, P493-6 cells, 72 h
How it was run: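 P493-6 cells with myc on, 10,000 per well in RPMI/10% FBS, exposed to serially diluted compound (0.5% DMSO final) for 72 h at 37 °C, 5% CO2. Antiproliferative effect read by Cell Titer Glo luminescence or Viacount FACS viability count.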

Row | Structure (SMILES) | pIC50 [1] | pIC50 [2]
1 | O=C(Cc1ccccc1)Nc1ccc(CCCCc2nnc(NC(=O)Cc3cccc(Cn4cccn4)c3)s2)nn1 [Compound 395] | 8.40 | 7.82
2 | COc1cccc(CC(=O)Nc2nnc(CCCCc3ccc(NC(=O)Cc4ccccc4)nn3)s2)c1OC [Compound 397] | 8.10 | 7.39
3 | COc1cc(CC(=O)Nc2nnc(CCCCc3ccc(NC(=O)Cc4ccccc4)nn3)s2)cc(OC)c1 [Compound 398] | 8.40 | 7.64
4 | CC(C)(C)OC(=O)Nc1ccc(CC(=O)Nc2nnc(CCCCc3ccc(NC(=O)Cc4ccccc4)nn3)s2)cc1 [Compound 400] | 7.82 | 7.28
5 | CC(C)(C)OC(=O)NCc1ccc(CC(=O)Nc2nnc(CCCCc3ccc(NC(=O)Cc4ccccc4)nn3)s2)cc1 [Compound 401] | 8.30 | 7.96
6 | COc1cccc(C(OC(=O)CCN2CCOCC2)C(=O)Nc2nnc(CCCCc3ccc(NC(=O)Cc4ccccc4)nn3)s2)c1 (stereo not shown) [Compound 404] | 7.22 | 7.66
7 | CN(C)Cc1cccc(CC(=O)Nc2nnc(CCCCc3ccc(NC(=O)Cc4ccccc4)nn3)s2)c1 [Compound 406] | 7.80 | 6.57
8 | CNCc1cccc(CC(=O)Nc2nnc(CCCCc3ccc(NC(=O)Cc4ccccc4)nn3)s2)c1 [Compound 408] | 7.74 | 6.72
9 | Nc1ccc(CC(=O)Nc2nnc(CCCCc3ccc(NC(=O)Cc4ccccc4)nn3)s2)cc1 [Compound 410] | 8.05 | 7.24
10 | CC(C)(C)OC(=O)NCc1cccc(CC(=O)Nc2nnc(CCCCc3ccc(N)nn3)s2)c1 [Compound 412] | 7.55 | 6.96
11 | O=C(Cc1ccccc1)Nc1ccc(CCCCc2nnc(NC(=O)Cc3cccc(OC(F)(F)F)c3)s2)nn1 [Compound 413] | 8.15 | 7.35
12 | O=C(Cc1ccccc1)Nc1ccc(CCCCc2nnc(NC(=O)Cc3cc(F)cc(C(F)(F)F)c3)s2)nn1 [Compound 414] | 8.00 | 7.24
13 | COc1cccc(CNC(=O)Nc2nnc(CCCCc3nnc(NC(=O)Cc4ccccc4)s3)s2)c1 [Compound 416] | 7.26 | 6.46
14 | CCNC(=O)Nc1nnc(CCCCc2ccc(NC(=O)Cc3ccccc3)nn2)s1 [Compound 418] | 6.85 | 6.49
15 | O=C(Cc1ccccc1)Nc1ccc(CCCCc2nnc(NC(=O)Nc3ccccc3)s2)nn1 [Compound 419] | 7.62 | 7.19
16 | CCNC(=O)Nc1ccc(CCCCc2nnc(NC(=O)Cc3cccc(CN)c3)s2)nn1 [Compound 421] | 6.54 | 6.80
17 | NCc1cccc(CC(=O)Nc2nnc(CCCCc3ccc(NC(=O)C(O)c4cccc(Cl)c4)nn3)s2)c1 (stereo not shown) [Compound 423] | 7.66 | 7.38
18 | CC(=O)Nc1ccc(CCCCc2nnc(NC(=O)Cc3cccc(CNC(=O)OC(C)(C)C)c3)s2)nn1 [Compound 424] | 8.22 | 8.10
19 | CC(=O)Nc1ccc(CCCCc2nnc(NC(=O)Cc3cccc(CN)c3)s2)nn1 [Compound 425] | 7.07 | 7.82
20 | CC(C)(C)OC(=O)NCCc1cccc(CC(=O)Nc2nnc(CCCCc3ccc(NC(=O)Cc4ccccc4)nn3)s2)c1 [Compound 429] | 8.40 | 8.15
21 | CN(C)CC(=O)Nc1ccc(CC(=O)Nc2nnc(CCCCc3ccc(NC(=O)Cc4ccccc4)nn3)s2)cc1 [Compound 430] | 8.05 | 7.57
22 | CC(=O)NCc1cccc(CC(=O)Nc2nnc(CCCCc3ccc(NC(=O)Cc4ccccc4)nn3)s2)c1 [Compound 431] | 8.15 | 7.59
23 | CC(C)CC(=O)NCc1cccc(CC(=O)Nc2nnc(CCCCc3ccc(NC(=O)Cc4ccccc4)nn3)s2)c1 [Compound 433] | 8.70 | 8.15
24 | CN(C)CC(=O)NCc1cccc(CC(=O)Nc2nnc(CCCCc3ccc(NC(=O)Cc4ccccc4)nn3)s2)c1 [Compound 434] | 8.30 | 7.77
25 | O=C(CN1CCOCC1)Nc1cccc(CC(=O)Nc2nnc(CCCCc3ccc(NC(=O)Cc4ccccc4)nn3)s2)c1 [Compound 440] | 8.10 | 7.51
26 | NCCc1cccc(CC(=O)Nc2nnc(CCCCc3ccc(NC(=O)Cc4ccccc4)nn3)s2)c1 [Compound 441] | 7.96 | 6.74

Row | Structure (SMILES) | pIC50 [1] | pIC50 [2]
27 | O=C(Cc1ccccc1)Nc1ccc(CCCCc2nnc(NC(=O)Cc3c(F)cccc3F)s2)nn1 [Compound 443] | 7.96 | 7.00
28 | CN(Cc1cccc(CC(=O)Nc2nnc(CCCCc3ccc(NC(=O)Cc4ccccc4)nn3)s2)c1)C(=O)Cc1ccccc1 [Compound 444] | 8.52 | 8.10
29 | CC(=O)N(C)Cc1cccc(CC(=O)Nc2nnc(CCCCc3ccc(NC(=O)Cc4ccccc4)nn3)s2)c1 [Compound 445] | 8.40 | 7.66
30 | O=C(Cc1cccc(Cl)c1)Nc1ccc(CCCCc2nnc(NC(=O)C(OC(=O)Cc3cccc(Cl)c3)c3cccc(Cl)c3)s2)nn1 (stereo not shown) [Compound 449] | 6.96 | 6.92
31 | O=C(Cc1ccccc1)Nc1ccc(CCCCc2nnc(NC(=O)Cc3cccc(Oc4ccccc4)c3)s2)nn1 [Compound 450] | 8.22 | 7.38
32 | CC(=O)Nc1cccc(CC(=O)Nc2nnc(CCCCc3ccc(NC(=O)Cc4ccccc4)nn3)s2)c1 [Compound 451] | 8.52 | 7.25
33 | CS(=O)(=O)NCc1cccc(CC(=O)Nc2nnc(CCCCc3ccc(NC(=O)Cc4ccccc4)nn3)s2)c1 [Compound 452] | 8.40 | 7.31
34 | CCNC(=O)NCc1cccc(CC(=O)Nc2nnc(CCCCc3ccc(NC(=O)Cc4ccccc4)nn3)s2)c1 [Compound 453] | 8.52 | 7.82
35 | O=C(Cc1ccccc1)Nc1ccc(CCCCc2nnc(NC(=O)Cc3cccc(CCNC(=O)c4ccccc4)c3)s2)nn1 [Compound 455] | 8.52 | 7.92
36 | CCOC(=O)Cc1cccc(CC(=O)Nc2nnc(CCCCc3ccc(NC(=O)Cc4ccccc4)nn3)s2)c1 [Compound 456] | 8.52 | 7.62
37 | CN(C)CC(=O)Nc1cccc(CC(=O)Nc2nnc(CCCCc3ccc(NC(=O)Cc4ccccc4)nn3)s2)c1 [Compound 457] | 8.05 | 6.96
38 | CC(=O)Nc1ccc(CCCCc2nnc(NC(=O)Cc3cccc(CNC(=O)c4ccccc4)c3)s2)nn1 [Compound 460] | 8.30 | 7.51
39 | CC(=O)Nc1ccc(CCCCc2nnc(NC(=O)Cc3cccc(CNC(=O)Cc4ccccc4)c3)s2)nn1 [Compound 462] | 8.22 | 7.28
40 | Nc1ccc(CCCCc2nnc(NC(=O)Cc3cccc(CNC(=O)c4ccccc4)c3)s2)nn1 [Compound 463] | 7.28 | 6.02
41 | O=C(O)Cc1cccc(CC(=O)Nc2nnc(CCCCc3ccc(NC(=O)Cc4ccccc4)nn3)s2)c1 [Compound 465] | 8.22 | 6.04
42 | NCc1ccccc1CC(=O)Nc1nnc(CCCCc2ccc(NC(=O)Cc3ccccc3)nn2)s1 [Compound 466] | 7.29 | 5.89
43 | COc1ccccc1CC(=O)Nc1nnc(CCCCc2ccc(NC(=O)Cc3ccccc3)nn2)s1 [Compound 469] | 8.15 | 7.31
44 | CC(C)CNC(=O)Cc1cccc(CC(=O)Nc2nnc(CCCCc3ccc(NC(=O)Cc4ccccc4)nn3)s2)c1 [Compound 470] | 8.52 | 8.05
45 | CC(C)(C)CNC(=O)Cc1cccc(CC(=O)Nc2nnc(CCCCc3ccc(NC(=O)Cc4ccccc4)nn3)s2)c1 [Compound 471] | 8.52 | 8.22
46 | O=C(Cc1ccccc1)Nc1ccc(CCCCc2nnc(NC(=O)Cc3cccc(CC(=O)N4CCCC4)c3)s2)nn1 [Compound 473] | 8.70 | 8.22
47 | O=C(Cc1ccccc1)Nc1ccc(CCCCc2nnc(NC(=O)Cc3cccc(CNC(=O)c4ccc(Br)nn4)c3)s2)nn1 [Compound 475] | 8.70 | 8.52
48 | CC1(C)CCN(C(=O)Cc2cccc(CC(=O)Nc3nnc(CCCCc4ccc(NC(=O)Cc5ccccc5)nn4)s3)c2)C1 [Compound 481] | 8.40 | 7.92
49 | CC(C)(O)COc1cccc(CC(=O)Nc2nnc(CCCCc3ccc(NC(=O)Cc4ccccc4)nn3)s2)c1 [Compound 482] | 8.15 | 7.42
50 | O=C(Cc1cccc(OC(F)(F)F)c1)Nc1ccc(CCCCc2nnc(NC(=O)Cc3ccccc3F)s2)nn1 [Compound 673] | 8.22 | –
51 | CSc1cccc(CC(=O)Nc2nnc(CCCCc3ccc(NC(=O)Cc4cccc(OC(F)(F)F)c4)nn3)s2)c1 [Compound 674] | 8.10 | –
